# Values quoted from earlier work as cited in patent publication US12107222B2, “Liquid electrolyte comprising organic carbonates and cyclic sulfoxides for applications in lithium secondary batteries” (Forschungszentrum Juelich GmbH, priority 2018, dated 2024).
# Experiments:
# rat [1] = tested on: rat
# rat [2] = tested on: rat; remark: listed apart in the source
# human organism = details: classification in words
# rat [3] = details: in vivo
Compound,hazard classification (human organism),"LD50, rat, oral (rat [3])","LD50, rabbit, dermal (rabbit)",also measured
O=C1OCCO1 [Ethylene carbonate],,,,"LC50, rat, inhalative, 7 h (rat [1]): LC50, rat, inhalative, 7 h: >1.268 mg/L^[12]; LD50, rat, dermal (rat [2]): LD50, rat, dermal: >2,000 mg/kg"
"O=S1(=O)CCCO1 [1,3-propane sultone]",carcinogenic and toxic,,,
"CCC1COC(=O)O1 (stereo not drawn) [1,2-Butylene carbonate]",,"LD50, rat, oral: >5,000 mg/kg","LD50, rabbit, dermal: >2,000 mg/kg^[13]",
[O-][S+]1CCCC1 [Tetrahydrothiophene-1-oxide],,,,"LD50, mouse, intraperitoneal (mouse): LD50, mouse, intraperitoneal: 3,500"
CC1COC(=O)O1 (stereo not drawn) [Propylene carbonate],,"LD50, rat, oral: >5,000 mg/kg","LD50, rabbit, dermal: >2,000 mg/kg^[2]",
O=c1occo1 [Vinylene carbonate],toxic on contact with the skin,,,
